Results: PubChem BioAssay AID651961 (The Scripps Research Institute Molecular Screening Center, 2012)
Calls of active or inactive are those of the source. No rule for the calls is given here.

These molecules were tested on BLA reporter cell line, FRET fluorescence counterscreen (assay: beta-lactamase reporter inhibition, nonselective hits, late-stage follow-up, counter-screen for NOD2-RIPK2 interaction inhibitor project, cell-based, FRET fluorescence, dose response (AID 651961)).
With `Cc1nc([N+](=O)[O-])c(Br)n1Cc1ccc(Cl)c(Cl)c1` the IC50 was > 49.8 µM (inactive). `O=[N+]([O-])c1cc(S(=O)(=O)N2CCCCCC2)ccc1F` was tested, and the IC50 was > 49.8 µM (inactive). In the case of `O=[N+]([O-])c1cccc(S(=O)(=O)N2CCCCCC2)c1`, the IC50 is reported as > 49.8 µM (inactive). In the case of `O=S(=O)(c1ccc(F)cc1)N1CCCCCC1`, the IC50 is reported as > 49.8 µM (inactive). In the case of `O=S(=O)(c1ccccc1)N1CCCCCC1`, the IC50 is reported as > 49.8 µM (inactive). `Cc1ccc(C(C[N+](=O)[O-])n2nc(C)cc2C)cc1` (stereo unspecified) was tested, and the IC50 was > 49.8 µM (inactive). For `Cc1cc(S(=O)(=O)N2CCCCCC2)ccc1F`, the IC50 was > 49.8 µM (inactive). `Cc1nc([N+](=O)[O-])c(Br)n1Cc1ccccc1` was tested, and the IC50 was > 49.8 µM (inactive). `COc1ccc(C(C[N+](=O)[O-])n2nc(C)cc2C)cc1` (stereo unspecified) was tested, and the IC50 was > 49.8 µM (inactive). With `Cc1ccc(S(=O)(=O)N2CCCCCC2)cc1[N+](=O)[O-]` the IC50 was > 49.8 µM (inactive). `Cc1ncc([N+](=O)[O-])n1Cc1ccc(Cl)c(Cl)c1` was tested, and the IC50 was > 49.8 µM (inactive).
